From US12171226B2, “Development of pheromone assisted techniques to improve efficacy of insecticide sprays targeting urban pest ant species” (The Regents of the University of California, priority 2012, dated 2024)

Tests used:
Argentine ants [1] = experiment: Experiment #3: laboratory colony mortality after spray applied away from the ant nest; format: in vivo, Linepithema humile; details: 0.01% fipronil and/or approx. 12 ng per cm^2 (Z)-9-hexadecenal; 3 ml on 491 cm^2 sand; colony about 731 ants; n=5-6
Protocol: Experiment #3 was conducted to observe would co-application of synthetic trail pheromone improve the efficacy of fipronil insecticide spray applied away from the ant nest? A laboratory study was conducted to determine if the efficacy of an insecticide spray (fipronil) can be improved by adding with a synthetic attractant trail pheromone. Argentine ants were collected from a citrus grove (biological control grove) on the University of California, Riverside, campus. Ant nests were excavated from the ground and transported to a laboratory chamber where they were extracted from the soil. Laboratory stock colonies were maintained in plastic boxes (26.5 by 30 by 10 cm) with the inner sides coated with Teflon™ Fluoropolymer resin, type 30, DuPont Polymers) to prevent ants from escaping. Each colony was provided with two or three artificial nests constructed from plaster-filled petri dishes (9 cm in diameter by 1.5 cm in depth) formed with a 5-cm-diameter by 1-cm-deep cylindrical area in the center of the dish to serve as a nesting space. […]
Three different spray preparations were tested: (a) pheromone+fipronil, (b) fipronil only, and (c) pheromone only. […] The dead ants were removed from the colony box and counted daily. […]

Argentine ants [2] = experiment: Experiment #1: field attraction of ants from an existing trail to a pheromone-sprayed sand patch; format: in vivo, Linepithema humile
Protocol: Experiment #1 was conducted to observe would synthetic trail pheromone spray deposit attract the ants from an existing trail? The study was conducted in the biological control grove at the University of California, Riverside, in April 2012. The site supports a large population of Argentine ants, primarily because of the absence of chemical insecticide use and the existence of honeydew-producing insects in the citrus trees. Five different trails of Argentine ants were located, which were relatively straight and at least 30-cm long, and originating from different nests. By using these trails as “existing trails,” tests were performed to see if the “pheromone assisted technique” would attract ants from the existing trails. For the pheromone treatment, two patches of sand were made, one on each side of the existing trail by evenly spreading 52.5 grams (g) of sand in a square (20 by 20 cm). The distance between two patches was about 5 cm. One patch served as a treatment, and the other one served as a control. For the treatment, 1 mg of the synthetic pheromone compound [(Z)-9-hexadecenal] dissolved in 1 ml of ethyl alcohol was mixed with 500 ml of deionized water. […]
Each sand patch was treated with four sprays (each spray targeting 10 by 10 cm areas on one corner). […] The numbers of ants on the 20 by 20-cm sand patches were counted at 2 and 4 min post-treatment using the photographs. […]

[3] = test system: Argentine ant populations; details: relatively large quantities, stand-alone treatment, field; cited from earlier work
Argentine ants [4] = experiment: Experiment #2: field attraction of ants from nest entrance and nearby trails to a pheromone-sprayed sand patch; format: in vivo, Linepithema humile
Protocol: Experiment #2 was conducted to observe would synthetic trail pheromone spray deposit attract the ants from a nest entrance and nearby trails? The study was conducted in the biological control grove at the University of California, Riverside, in Apr. 23, 2012. Nest entrances of Argentine ant colonies were located, which had active trails associated with them (one nest entrance per nest). By using the nest entrance and trails associated with the nest entrance, the pheromone assisted technique” was tested to see if it would attract ants from the nest entrance and nearby trails. For the pheromone treatment, two patches were made of sand on both sides of the nest entrance by evenly spreading 52.5 g of sand in a square (20 by 20 cm). The distance between the two patches was about 5 cm. The method and rate of application were identical with those of experiment #1.
Both sand patches were photographed at 1, 2, and 3 min after application of sprays. The study was replicated ten times by using a different nest entrance for each replicate. The numbers of ants on the 20 by 20-cm sand patches were counted at 1, 2, and 3 minute post-treatment using the photographs. The average values were compared between treatment and control with a paired T-test (one-sided, Analytical Software 2008). […]

| SMILES | cumulative number of dead ants at day 7 post-treatment (mean±SEM) (Argentine ants [1]) | number of ants on treated sand patch relative to control patch (Argentine ants [2]; approx. 12 ng per cm^2, paired T-test P=0.033) | average number of ants on the 20 by 20-cm sand patch (mean±SEM) (Argentine ants [2]; approx. 12 ng per cm^2 on sand, counts at 2 and 4 min post-treatment averaged, 5 replicates, existing trail) | impact on Argentine ant populations [3] | number of ants on treated sand patch relative to control patch (Argentine ants [4]; approx. 12 ng per cm^2, paired T-test P<0.001) | average number of ants on the 20 by 20-cm sand patch (mean±SEM) (Argentine ants [4]; approx. 12 ng per cm^2 on sand, counts at 1, 2 and 3 min post-treatment, 10 replicates, nest entrance and nearby trails) |
| --- | --- | --- | --- | --- | --- | --- |
| CCCCCC/C=C\CCCCCCCC=O [(Z)-9-hexadecenal] | 65.8±11.0 | more than two times higher | 10.4±4.0 | negligible impact | more than five times higher | 18.1±3.0 |
| N#Cc1nn(-c2c(Cl)cc(C(F)(F)F)cc2Cl)c(N)c1[S+]([O-])C(F)(F)F (stereo not shown) [fipronil only, fipronil] | 291±27.1 |  |  |  |  |  |
